Measurements reported in patent US20090246292A1, “ANTIMICROBIAL FORMULATIONS COMPRISING A QUINONE AND A COPPER SALT” (priority 2006, published 2009).
Like-named read-outs stand apart in the source and are kept apart here.

Tests used:
S. aureus ATCC 29213 [1] = test: Disc diffusion assay (DDA), also supplemented
Experimental: The staphylococci were cultured and maintained on Mueller-Hinton Medium (agar and broth) at pH 7.2; cultures were incubated aerobically at 37° C. for 19-20 hours.
(d) Disc Diffusion Assay (DDA)
(§6) A sterile paper disc was impregnated with a sample of the test compound in a suitable solvent and 30 minutes allowed for the solvents to evaporate (where possible). The disc was then placed on an agar plate onto which the test micro-organism had been inoculated. The plate was then incubated under the conditions described above, following which it was examined visually for signs of bacterial growth. […] The diameter of this zone of “inhibition” was measured using a ProtoCOL™ automated zone sizer (Synbiosis, Cambridge, UK).
(f) Supplemented Disc Diffusion Assays
For assays using S. aureus ATCC 29213 the supplements used were sodium chloride (100 mM), lipid (Tween™ 80 at 1% v/v) and horse serum (5% v/v).

S. aureus ATCC 29213 [2] = test: Synergy disc diffusion assay (SDDA), also supplemented;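 further: disc diffusion on Mueller-Hinton agar at pH 7.2, aerobic incubation at 37 °C lasting 19-20 h, two compounds assessed jointly for combined antimicrobial effect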
P. acnes NCTC 737 [3] = test: as above
Experimental: (§7) The propionibacteria were cultured and maintained on Wilkins-Chalgren Anaerobe Medium (agar and broth) at pH 6.0; all cultures were incubated anaerobically at 37° C. for 72 hours.
(e) Synergy Disc Diffusion Assay (SDDA)
This is a variation on the DDA method, in which two compounds are tested together for their combined antimicrobial activity.
Two test compounds A and B were placed on a single paper disc and the above described DDA procedure repeated.
(f) Supplemented Disc Diffusion Assays
(§8) For assays using Propionibacterium spp. strains the supplements used in the examples below were lipid (either Tween™ 80 or triolein, both at 1% v/v) and sodium chloride (100 mM).

P. acnes NCTC 737 [4] = test: Minimum bactericidal concentration (MBC) assay; type: cell-based, Propionibacterium acnes
Experimental: (§1) (b) Minimum Bactericidal Concentration (MBC) Assay
(§2) Following incubation they were examined visually for bacterial growth.

P. acnes NCTC 737 [5] = test: Disc diffusion assay (DDA), also supplemented;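 further: paper disc carrying compound placed on inoculated Wilkins-Chalgren Anaerobe agar pH 6.0, with lipid or NaCl supplement where listed, anaerobic 37 °C for 72 h, inhibition zone diameter read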
Experimental: as §7
(d) Disc Diffusion Assay (DDA)
as §6
(f) Supplemented Disc Diffusion Assays
as §8

P. acnes NCTC 737 [6] = test: Minimum inhibitory concentration (MIC) assay; type: cell-based, Propionibacterium acnes
Excerpt: (§3) (a) Minimum Inhibitory Concentration (MIC) Assay
(§4) The culture media were as described above.
(§5) The assays included both negative (culture medium with no micro-organisms) and positive (culture medium plus diluting solvent plus micro-organism) controls.

S. aureus ATCC 29213 [7] = test: Minimum bactericidal concentration (MBC) assay; type: cell-based, Staphylococcus aureus
Experimental: as §1, §2

S. aureus ATCC 29213 [8] = test: Minimum inhibitory concentration (MIC) assay; type: cell-based, Staphylococcus aureus
Excerpt: as §3, §4, §5

[9] = copper salt alone, 200 μg per disc (silicate 62 μg), Tween 80 at 1% v/v
[10] = copper salt alone, 200 μg per disc (silicate 62 μg), salt and horse serum (5% v/v)
[11] = copper salt alone, 200 μg per disc (silicate 62 μg), sodium chloride (100 mM)
[12] = copper salt + TBHQ on one disc, 200 μg of each (silicate 62 μg), salt and serum supplements
[13] = copper salt + TBHQ on one disc, 200 μg of each (silicate 62 μg), unsupplemented
[14] = copper salt + TBHQ vs larger zone of either compound alone, unsupplemented
[15] = copper salt + TBHQ, salt and serum supplements
[16] = copper salt + TBHQ, unsupplemented
[17] = copper salt + TBHQ on one disc, 200 μg of each (silicate 62 μg), salt and lipid (1% (v/v) Tween 80)
[18] = copper salt + TBHQ, salt and lipid (1% (v/v) Tween 80)
[19] = copper salt alone, P. acnes NCTC 737
[20] = copper salt alone, 200 μg per disc (silicate 62 μg), 1% (v/v) Tween 80
[21] = copper salt alone, 200 μg per disc (silicate 62 μg), salt and 1% (v/v) Tween 80
[22] = copper salt alone, S. aureus ATCC 29213

CC(=O)[O-].CC(=O)[O-].[Cu+2] [Copper (II) acetate]
DDA (S. aureus ATCC 29213 [1]): 0 mm | DDA + lipid (S. aureus ATCC 29213 [1]): 0 mm | DDA + salt (S. aureus ATCC 29213 [1]): 0 mm | DDA + salt & serum (S. aureus ATCC 29213 [1]): 0 mm | SDDA area increase (S. aureus ATCC 29213 [2]): 1.59% | SDDA increase (S. aureus ATCC 29213 [2]): 0.32 mm | SDDA with TBHQ (S. aureus ATCC 29213 [2]): 40.74 mm | SS SDDA area increase (S. aureus ATCC 29213 [2]): −57.34% | SS SDDA increase (S. aureus ATCC 29213 [2]): −15.15 mm | SS SDDA with TBHQ (S. aureus ATCC 29213 [2]): 28.53 mm | SDDA area increase (P. acnes NCTC 737 [3]): 56% | SDDA increase (P. acnes NCTC 737 [3]): 13.35 mm | SDDA with TBHQ (P. acnes NCTC 737 [3]): 66.96 mm | SL SDDA area increase (P. acnes NCTC 737 [3]): 64.92% | SL SDDA increase (P. acnes NCTC 737 [3]): 14.08 mm | SL SDDA with TBHQ (P. acnes NCTC 737 [3]): 63.62 mm | MBC (P. acnes NCTC 737 [4]): 31.25 µg/mL | DDA (P. acnes NCTC 737 [5]): 53.61 mm | DDA + lipid (P. acnes NCTC 737 [5]): 42.06 mm | DDA + salt (P. acnes NCTC 737 [5]): 48.25 mm | DDA + salt & lipid (P. acnes NCTC 737 [5]): 49.54 mm | MIC (P. acnes NCTC 737 [6]): 7.8 µg/mL | MIC/MBC ratio (P. acnes NCTC 737 [6]): 0.25 | MBC (S. aureus ATCC 29213 [7]): >250 µg/mL | MIC (S. aureus ATCC 29213 [8]): >250 µg/mL

Copper (II) silicate
DDA + salt & serum (S. aureus ATCC 29213 [1]; Example 9, single compound, salt and serum): 0.00 (±0.00) mm | DDA + lipid (S. aureus ATCC 29213 [1]; [9]): 0 mm | DDA + salt & serum (S. aureus ATCC 29213 [1]; [10]): 0 mm | DDA + salt (S. aureus ATCC 29213 [1]; [11]): 0 mm | SS SDDA with TBHQ (S. aureus ATCC 29213 [2]; [12]): 57.26 mm | SDDA with TBHQ (S. aureus ATCC 29213 [2]; [13]): 71.79 mm | SDDA increase (S. aureus ATCC 29213 [2]; [14]): 31.37 mm | SS SDDA area increase (S. aureus ATCC 29213 [2]; [15]): 71.85% | SS SDDA increase (S. aureus ATCC 29213 [2]; [15]): 13.58 mm | SDDA area increase (S. aureus ATCC 29213 [2]; [16]): 215.45% | SL SDDA with TBHQ (P. acnes NCTC 737 [3]; [17]): 54.96 mm | SDDA with TBHQ (P. acnes NCTC 737 [3]; [13]): 54.44 mm | SDDA increase (P. acnes NCTC 737 [3]; [14]): 8.76 mm | SL SDDA area increase (P. acnes NCTC 737 [3]; [18]): 26.80% | SL SDDA increase (P. acnes NCTC 737 [3]; [18]): 6.15 mm | SDDA area increase (P. acnes NCTC 737 [3]; [16]): 42.03% | MBC (P. acnes NCTC 737 [4]; [19]): 38.75 µg/mL | DDA + salt & lipid (P. acnes NCTC 737 [5]; Example 8, single compound, salt and 1% (v/v) triolein): 42.56 (±2.18) mm | DDA + lipid (P. acnes NCTC 737 [5]; [20]): 33.40 mm | DDA + salt & lipid (P. acnes NCTC 737 [5]; [21]): 48.81 mm | DDA + salt (P. acnes NCTC 737 [5]; [11]): 41.44 mm | MIC (P. acnes NCTC 737 [6]; [19]): 4.84 µg/mL | MIC/MBC ratio (P. acnes NCTC 737 [6]; [19]): 0.125 | MBC (S. aureus ATCC 29213 [7]; [22]): >77.5 µg/mL | MIC (S. aureus ATCC 29213 [8]; [22]): >77.5 µg/mL

[Cu+].[I-] [Copper (I) iodide]
DDA + lipid (S. aureus ATCC 29213 [1]; [9]): 0 mm | DDA + salt & serum (S. aureus ATCC 29213 [1]; [10]): 0 mm | DDA + salt (S. aureus ATCC 29213 [1]; [11]): 0 mm | SS SDDA with TBHQ (S. aureus ATCC 29213 [2]; [12]): 45.26 mm | SDDA with TBHQ (S. aureus ATCC 29213 [2]; [13]): 52.74 mm | SDDA increase (S. aureus ATCC 29213 [2]; [14]): 12.32 mm | SS SDDA area increase (S. aureus ATCC 29213 [2]; [15]): 7.37% | SS SDDA increase (S. aureus ATCC 29213 [2]; [15]): 1.58 mm | SDDA area increase (S. aureus ATCC 29213 [2]; [16]): 70.25% | SL SDDA with TBHQ (P. acnes NCTC 737 [3]; [17]): 64.77 mm | SDDA with TBHQ (P. acnes NCTC 737 [3]; [13]): 70.08 mm | SDDA increase (P. acnes NCTC 737 [3]; [14]): 21.48 mm | SL SDDA area increase (P. acnes NCTC 737 [3]; [18]): 96.51% | SL SDDA increase (P. acnes NCTC 737 [3]; [18]): 18.56 mm | SDDA area increase (P. acnes NCTC 737 [3]; [16]): 107.92% | MBC (P. acnes NCTC 737 [4]; [19]): 31.25 µg/mL | DDA + lipid (P. acnes NCTC 737 [5]; [20]): 34.64 mm | DDA + salt & lipid (P. acnes NCTC 737 [5]; [21]): 46.20 mm | DDA + salt (P. acnes NCTC 737 [5]; [11]): 43.92 mm | MIC (P. acnes NCTC 737 [6]; [19]): 7.8 µg/mL | MIC/MBC ratio (P. acnes NCTC 737 [6]; [19]): 0.25 | MBC (S. aureus ATCC 29213 [7]; [22]): >250 µg/mL | MIC (S. aureus ATCC 29213 [8]; [22]): >250 µg/mL

O=S(=O)([O-])[O-].[Cu+2] [Copper (II) sulphate, copper (II) sulphate]
(S)DDA (S. aureus ATCC 29213 [1]): 0 mm | SS (S)DDA (S. aureus ATCC 29213 [1]): 0 mm | activity of copper salt alone (in words) (S. aureus ATCC 29213 [1]): inactive | MBC (P. acnes NCTC 737 [4]): 31.25 µg/mL | (S)DDA (P. acnes NCTC 737 [5]): 51.73 (±1.48) mm | SL (S)DDA (P. acnes NCTC 737 [5]): 51.10 (±3.17) mm | MIC (P. acnes NCTC 737 [6]): 15.6 µg/mL | MIC/MBC ratio (P. acnes NCTC 737 [6]): 0.5 | MBC (S. aureus ATCC 29213 [7]): 1000 µg/mL | MIC (S. aureus ATCC 29213 [8]): 1000 μml | MIC/MBC ratio (S. aureus ATCC 29213 [8]): 1
